According to paper PMC8815882, “Screening the pandemic response box identified benzimidazole carbamates, Olorofim and ravuconazole as promising drug candidates for the treatment of eumycetoma” (PLoS Neglected Tropical Diseases, 2022):
Where two headings read alike, the source gives them in different places.

Test system: M. mycetomatis genome strain MM55
Assay: CLSI M38-A2 based in vitro susceptibility screening (XTT or resazurin), growth at fixed concentration
Type: cell-based, Madurella mycetomatis
Conditions: Madurella mycetomatis; for Percent fungal survival at 100 µM: read-out: Percentage survival at 100um, 100 uM A (second replicate column)
[1] = mean of replicates, MM55, read-out: Percentage survival at 25um, 25 uM mean
[2] = replicate A, MM55, read-out: Percentage survival at 25um, 25 um A
[3] = replicate B, MM55, read-out: Percentage survival at 25um, 25 uM B
[4] = replicate C, MM55, read-out: Percentage survival at 25um, 25 uM C
[5] = mean of replicates, MM55, read-out: Percentage survival at 100um, 100 uM mean
[6] = replicate 1, MM55, read-out: Percentage survival at 100um, 100 uM A
[7] = replicate 2, MM55, read-out: Percentage survival at 100um, 100 uM A
[8] = replicate 3, MM55, read-out: Percentage survival at 100um, 100 uM A
[9] = replicate A, read-out: Percentage survival at 25um, 25 um A
[10] = replicate B, read-out: Percentage survival at 25um, 25 uM B
[11] = replicate C, read-out: Percentage survival at 25um, 25 uM C
[12] = mean of replicates, read-out: Percentage survival at 25um, 25 uM mean
[13] = mean of replicates, read-out: Percentage survival at 100um, 100 uM mean
[14] = mean, read-out: Percentage survival at 25um, 25 uM mean
[15] = mean, read-out: Percentage survival at 100um, 100 uM mean
[16] = replicate (first column), read-out: Percentage survival at 100um, 100 uM A
[17] = replicate (second column), read-out: Percentage survival at 100um, 100 uM A
[18] = replicate (third column), read-out: Percentage survival at 100um, 100 uM A
[19] = replicate 1, read-out: Percentage survival at 100um, 100 uM A (first replicate column)
[20] = replicate 3, read-out: Percentage survival at 100um, 100 uM A (third replicate column)

OC1O[C@H](CSc2ccc(F)cc2)[C@@H](O)[C@H]1O (stereo partly shown) [MMV1581550]
activity at 25 µM (mean of three, M. mycetomatis MM55, read-out: Percentage survival at 25um, 25 uM mean): 91% | activity at 25 µM (replicate A, M. mycetomatis MM55, read-out: Percentage survival at 25um, 25 um A): 97.5% | activity at 25 µM (replicate B, M. mycetomatis MM55, read-out: Percentage survival at 25um, 25 uM B): 90.1% | activity at 25 µM (replicate C, M. mycetomatis MM55, read-out: Percentage survival at 25um, 25 uM C): 85.4% | activity at 100 µM (mean of three, M. mycetomatis MM55, read-out: Percentage survival at 100um, 100 uM mean): 85.6% | activity at 100 µM (replicate 1, M. mycetomatis MM55, read-out: Percentage survival at 100um, 100 uM A (first replicate column)): 80.9% | Percent fungal survival at 100 µM (replicate 2, M. mycetomatis MM55): 92.1% | activity at 100 µM (replicate 3, M. mycetomatis MM55, read-out: Percentage survival at 100um, 100 uM A (third replicate column)): 83.9%

CN1C(=O)C(c2ccccc2)C(=O)N(c2ccccc2)c2cc(C(F)(F)F)ccc21 (stereo not shown) [MMV1782208]
activity at 25 µM [1]: 99.7% | activity at 25 µM [2]: 120% | activity at 25 µM [3]: 99.1% | activity at 25 µM [4]: 80.3% | activity at 100 µM [5]: 90.1% | activity at 100 µM [6]: 94.2% | activity at 100 µM [7]: 97.9% | activity at 100 µM [8]: 78.1%

N#Cc1cc([N+](=O)[O-])ccc1Oc1ccccc1Cl [MMV1580800]
activity at 25 µM (mean of three replicates, read-out: Percentage survival at 25um, 25 uM mean): 66.8% | activity at 25 µM [9]: 54.7% | activity at 25 µM [10]: 82.6% | activity at 25 µM [11]: 63.1% | activity at 100 µM (first replicate column, read-out: Percentage survival at 100um, 100 uM A): 3.13% | activity at 100 µM (mean of three replicates, read-out: Percentage survival at 100um, 100 uM mean): 19.4% | activity at 100 µM (second replicate column, read-out: Percentage survival at 100um, 100 uM A): 3.43% | activity at 100 µM (third replicate column, read-out: Percentage survival at 100um, 100 uM A): 51.7%

O=[N+]([O-])c1cn2c(n1)OC[C@@H](OCc1ccc(OC(F)(F)F)cc1)C2 [MMV688755]
activity at 25 µM [12]: 85.3% | activity at 25 µM [9]: 91.8% | activity at 25 µM [10]: 92.4% | activity at 25 µM [11]: 71.7% | activity at 100 µM [13]: 85.9% | activity at 100 µM (replicate 1, read-out: Percentage survival at 100um, 100 uM A): 75% | activity at 100 µM (replicate 2, read-out: Percentage survival at 100um, 100 uM A): 105% | activity at 100 µM (replicate 3, read-out: Percentage survival at 100um, 100 uM A): 77.3%

c1ccc(-c2nnc3c4ccccc4c(N4CCNCC4)nn23)cc1 [MMV1581551]
activity at 25 µM [14]: 84.6% | activity at 25 µM [9]: 93.2% | activity at 25 µM [10]: 85.9% | activity at 25 µM [11]: 74.8% | activity at 100 µM [15]: 37% | activity at 100 µM [16]: 10.9% | activity at 100 µM [17]: 52.3% | activity at 100 µM [18]: 47.9%

O=C(NCc1ccc(F)cc1)c1c(O)c2ncccc2[nH]c1=O [MMV1782097]
activity at 25 µM [1]: 95.5% | activity at 25 µM [2]: 97.7% | activity at 25 µM [3]: 100% | activity at 25 µM [4]: 88.2% | activity at 100 µM [5]: 82.8% | activity at 100 µM [6]: 86.6% | activity at 100 µM [7]: 79.1% | activity at 100 µM [8]: 82.7%

Nc1nc(C(F)(F)F)cc2c1[nH]c(=O)n2Cc1ccccc1 [MMV1634389]
activity at 25 µM [12]: 83.5% | activity at 25 µM [9]: 74.5% | activity at 25 µM [10]: 96.8% | activity at 25 µM [11]: 79.4% | activity at 100 µM [13]: 61.6% | activity at 100 µM [19]: 36.1% | Percent fungal survival at 100 µM (replicate 2): 67.1% | activity at 100 µM [20]: 81.6%

CCOc1ccc(/C=N/NC(=O)C2CC2c2ccc(C(C)(C)C)cc2)cc1OCC (stereo not shown) [MMV1634398]
activity at 25 µM [12]: 85.9% | activity at 25 µM [9]: 88.3% | activity at 25 µM [10]: 97.5% | activity at 25 µM [11]: 72% | activity at 100 µM [13]: 81.1% | activity at 100 µM [19]: 88.5% | Percent fungal survival at 100 µM (replicate 2): 87.7% | activity at 100 µM [20]: 67.1%

O=c1ccc2ncc(=O)n3c2n1CC3CN1CCC(NCc2cc3c(cn2)OCCC3)CC1 (stereo not shown) [MMV1578568]
activity at 25 µM [14]: 66.7% | activity at 25 µM [9]: 82.6% | activity at 25 µM [10]: 42.3% | activity at 25 µM [11]: 75.2% | activity at 100 µM [15]: 63.3% | activity at 100 µM [16]: 26.3% | activity at 100 µM [17]: 74.3% | activity at 100 µM [18]: 89.2%

Cn1cncc1[C@@](N)(c1ccc(Cl)cc1)c1ccc2c(c1)c(-c1cccc(Cl)c1)cc(=O)n2C [MMV658803]
activity at 25 µM [1]: 43.8% | activity at 25 µM [2]: 0.79% | activity at 25 µM [3]: 64.2% | activity at 25 µM [4]: 66.2% | activity at 100 µM [5]: 36.3% | activity at 100 µM [6]: 13.3% | activity at 100 µM [7]: 45% | activity at 100 µM [8]: 50.7%

COc1cc(NCc2ccc3nc(N)nc(N)c3c2C)cc(OC)c1OC [MMV1580173]
activity at 25 µM [14]: 73.6% | activity at 25 µM [9]: 96.5% | activity at 25 µM [10]: 46.2% | activity at 25 µM [11]: 78.3% | activity at 100 µM [15]: 55.4% | activity at 100 µM [16]: 74.1% | activity at 100 µM [17]: 4.19% | activity at 100 µM [18]: 88%
